In ChEMBL document CHEMBL6114980, “Single or double lipid-modified ultra-short antimicrobial peptides for treating infections caused by resistant bacteria” (Eur J Med Chem, 2025):
Converted amounts (≈) assume the structure as drawn. The source made the active and inactive calls. The rule behind the calls is not given here. Peptide text beside a SMILES is read from it. * marks the point of attachment. Myristoyl = CCCCCCCCCCCCCC(=O)*; Lauroyl = CCCCCCCCCCCC(=O)*; Octanoyl = CCCCCCCC(=O)*

What was measured:
Bacillus subtilis = experiment: Antibacterial activity against Bacillus subtilis ATCC 23857 assessed as reduction in bacterial growth incubated for 18 to 24 hrs by broth microdilution method; type: functional; settings: time 18-24 hrs
Enterococcus faecalis = experiment: Antibacterial activity against Enterococcus faecalis ATCC 29212 assessed as reduction in bacterial growth incubated for 18 to 24 hrs by broth microdilution method; type: functional; settings: time 18-24 hrs
[1] = tested on: Staphylococcus epidermidis; experiment: Antibacterial activity against Staphylococcus epidermidis ATCC 12228 assessed as reduction in bacterial growth incubated for 18 to 24 hrs by broth microdilution method; type: functional; settings: time 18-24 hrs
Pseudomonas aeruginosa [2] = experiment: Antibacterial activity against Pseudomonas aeruginosa ATCC 27853 assessed as reduction in bacterial growth incubated for 18 to 24 hrs by broth microdilution method; type: functional; settings: time 18-24 hrs
Acinetobacter baumannii [3] = experiment: Antibacterial activity against Acinetobacter baumannii ATCC 19606 assessed as reduction in bacterial growth incubated for 18 to 24 hrs by broth microdilution method; type: functional; settings: time 18-24 hrs
Staphylococcus aureus [4] = experiment: Antibacterial activity against Staphylococcus aureus ATCC 25923 assessed as reduction in bacterial growth incubated for 18 to 24 hrs by broth microdilution method; type: functional; settings: time 18-24 hrs
Klebsiella pneumoniae = experiment: Antibacterial activity against Klebsiella pneumoniae ATCC 700603 assessed as reduction in bacterial growth incubated for 18 to 24 hrs by broth microdilution method; type: functional; settings: time 18-24 hrs
Escherichia coli [5] = experiment: Antibacterial activity against Escherichia coli ATCC 25922 assessed as reduction in bacterial growth incubated for 18 to 24 hrs by broth microdilution method; type: functional; settings: time 18-24 hrs
Cell membrane [6] = experiment: Induction of cytoplasmic membrane depolarization in Escherichia coli assessed as increase in fluorescence intensity at 0.5 to 2 times MIC measured for 10 mins by DiSC3-5 dye based fluorescence assay
Cell membrane [7] = experiment: Induction of cytoplasmic membrane depolarization in Staphylococcus aureus assessed as increase in fluorescence intensity at 0.5 to 4 times MIC measured for 1 mins by DiSC3-5 dye based fluorescence assay
Acinetobacter baumannii [8] = experiment: Antibacterial activity against Acinetobacter baumannii 5444 assessed as reduction in bacterial growth incubated for 18 to 24 hrs by broth microdilution method; type: functional; settings: time 18-24 hrs
Staphylococcus aureus [9] = experiment: Antibacterial activity against methicillin-resistant Staphylococcus aureus 75 assessed as reduction in bacterial growth incubated for 18 to 24 hrs by broth microdilution method; type: functional; settings: time 18-24 hrs
Pseudomonas aeruginosa [10] = experiment: Antibacterial activity against Pseudomonas aeruginosa 124 assessed as reduction in bacterial growth incubated for 18 to 24 hrs by broth microdilution method; type: functional; settings: time 18-24 hrs
Pseudomonas aeruginosa [11] = experiment: Antibacterial activity against Pseudomonas aeruginosa 6434N assessed as reduction in bacterial growth incubated for 18 to 24 hrs by broth microdilution method; type: functional; settings: time 18-24 hrs
Staphylococcus aureus [12] = experiment: Antibacterial activity against Staphylococcus aureus 794 assessed as reduction in bacterial growth incubated for 18 to 24 hrs by broth microdilution method; type: functional; settings: time 18-24 hrs
Acinetobacter baumannii [13] = experiment: Antibacterial activity against Acinetobacter baumannii 92359 assessed as reduction in bacterial growth incubated for 18 to 24 hrs by broth microdilution method; type: functional; settings: time 18-24 hrs
Staphylococcus aureus [14] = experiment: Antibacterial activity against Staphylococcus aureus 113 assessed as reduction in bacterial growth incubated for 18 to 24 hrs by broth microdilution method; type: functional; settings: time 18-24 hrs
Escherichia coli [15] = experiment: Antibacterial activity against Escherichia coli 780 assessed as reduction in bacterial growth incubated for 18 to 24 hrs by broth microdilution method; type: functional; settings: time 18-24 hrs
Staphylococcus aureus [16] = experiment: Antibacterial activity against Staphylococcus aureus 125 assessed as reduction in bacterial growth incubated for 18 to 24 hrs by broth microdilution method; type: functional; settings: time 18-24 hrs
Escherichia coli [17] = experiment: Antibacterial activity against Escherichia coli 850 assessed as reduction in bacterial growth incubated for 18 to 24 hrs by broth microdilution method; type: functional; settings: time 18-24 hrs
Staphylococcus aureus [18] = experiment: Antibacterial activity against methicillin-resistant Staphylococcus aureus ATCC 33591 assessed as reduction in bacterial growth incubated for 18 to 24 hrs by broth microdilution method; type: functional; settings: time 18-24 hrs

Row | MIC (Bacillus subtilis) [µM] | MIC (Enterococcus faecalis) [µM] | MIC [1] [µM] | MIC (Pseudomonas aeruginosa [2]) [µM] | MIC (Acinetobacter baumannii [3]) [µM] | MIC (Staphylococcus aureus [4]) [µM] | MIC (Klebsiella pneumoniae) [µM] | MIC (Escherichia coli [5]) [µM] | Structure (SMILES) | MIC (Acinetobacter baumannii [8]) [µM] | MIC (Staphylococcus aureus [9]) [µM] | MIC (Pseudomonas aeruginosa [10]) [µM] | MIC (Pseudomonas aeruginosa [11]) [µM] | MIC (Staphylococcus aureus [12]) [µM] | MIC (Acinetobacter baumannii [13]) [µM] | MIC (Staphylococcus aureus [14]) [µM] | MIC (Escherichia coli [15]) [µM] | MIC (Staphylococcus aureus [16]) [µM] | MIC (Escherichia coli [17]) [µM] | MIC (Staphylococcus aureus [18]) [µM] | further results
1 | 128 (≈ 146 µg/mL) | 128 (≈ 146 µg/mL) | 128 (≈ 146 µg/mL) | 128 (≈ 146 µg/mL) | 128 (≈ 146 µg/mL) | 128 (≈ 146 µg/mL) | 128 (≈ 146 µg/mL) | 128 (≈ 146 µg/mL) | CCCCCCCCCCCC(=O)NCCCC[C@H](NC(=O)CCCCCCCCCCC)C(=O)N[C@@H](CCCCN)C(=O)N[C@@H](CCCCN)C(=O)N[C@@H](Cc1c[nH]c2ccccc12)C(=O)N[C@@H](Cc1c[nH]c2ccccc12)C(N)=O (Lauroyl-K(Lauroyl)KKWW-NH2) |  |  |  |  |  |  |  |  |  |  |  | 
2 | 128 (≈ 153 µg/mL) | 128 (≈ 153 µg/mL) | 128 (≈ 153 µg/mL) | 128 (≈ 153 µg/mL) | 128 (≈ 153 µg/mL) | 128 (≈ 153 µg/mL) | 128 (≈ 153 µg/mL) | 128 (≈ 153 µg/mL) | CCCCCCCCCCCCCC(=O)NCCCC[C@H](NC(=O)CCCCCCCCCCCCC)C(=O)N[C@@H](CCCCN)C(=O)N[C@@H](CCCCN)C(=O)N[C@@H](Cc1c[nH]c2ccccc12)C(=O)N[C@@H](Cc1c[nH]c2ccccc12)C(N)=O (Myristoyl-K(Myristoyl)KKWW-NH2) |  |  |  |  |  |  |  |  |  |  |  | 
3 | 2 (≈ 1.71 µg/mL) | 8 (≈ 6.85 µg/mL) | 4 (≈ 3.42 µg/mL) | 16 (≈ 13.7 µg/mL) | 32 (≈ 27.4 µg/mL) | 4 (≈ 3.42 µg/mL) | 32 (≈ 27.4 µg/mL) | 32 (≈ 27.4 µg/mL) | CCCCCCCCCCCCCC(=O)N[C@@H](CCCCN)C(=O)N[C@@H](CCCCN)C(=O)N[C@@H](Cc1c[nH]c2ccccc12)C(=O)N[C@@H](Cc1c[nH]c2ccccc12)C(N)=O (Myristoyl-KKWW-NH2) |  |  |  |  |  |  |  |  |  |  |  | Activity (Cell membrane [6]): Active; Compound Showed Similar Effect As Quality Control Polymyxin B; Activity (Cell membrane [7]): Active
4 | 4 (≈ 3.09 µg/mL) | 128 (≈ 98.8 µg/mL) | 32 (≈ 24.7 µg/mL) | 16 (≈ 12.4 µg/mL) | 128 (≈ 98.8 µg/mL) | 32 (≈ 24.7 µg/mL) | 128 (≈ 98.8 µg/mL) | 64 (≈ 49.4 µg/mL) | CCCCCCCC(=O)N[C@@H](CCCCN)C(=O)N[C@@H](CCCCN)C(=O)N[C@@H](Cc1c[nH]c2ccccc12)C(=O)N[C@@H](Cc1c[nH]c2ccccc12)C(N)=O (Octanoyl-KKWW-NH2) |  |  |  |  |  |  |  |  |  |  |  | 

Row | Structure (SMILES) | MIC (Bacillus subtilis) [µM] | MIC (Enterococcus faecalis) [µM] | MIC [1] [µM] | MIC (Pseudomonas aeruginosa [2]) [µM] | MIC (Acinetobacter baumannii [3]) [µM] | MIC (Staphylococcus aureus [4]) [µM] | MIC (Klebsiella pneumoniae) [µM] | MIC (Escherichia coli [5]) [µM] | MIC (Acinetobacter baumannii [8]) [µM] | MIC (Staphylococcus aureus [9]) [µM] | MIC (Pseudomonas aeruginosa [10]) [µM] | MIC (Pseudomonas aeruginosa [11]) [µM] | MIC (Staphylococcus aureus [12]) [µM] | MIC (Acinetobacter baumannii [13]) [µM] | MIC (Staphylococcus aureus [14]) [µM] | MIC (Escherichia coli [15]) [µM] | MIC (Staphylococcus aureus [16]) [µM] | MIC (Escherichia coli [17]) [µM] | MIC (Staphylococcus aureus [18]) [µM] | further results
5 | CC(=O)OCC1=C(C(=O)O)N2C(=O)[C@@H](NC(=O)Cc3cccs3)[C@H]2SC1 [CEPHALOTHIN] | 1 (≈ 0.396 µg/mL) | 4 (≈ 1.59 µg/mL) | 1 (≈ 0.396 µg/mL) | 16 (≈ 6.34 µg/mL) | 32 (≈ 12.7 µg/mL) | 1 (≈ 0.396 µg/mL) | 16 (≈ 6.34 µg/mL) | 1 (≈ 0.396 µg/mL) | 128 (≈ 50.7 µg/mL) | 128 (≈ 50.7 µg/mL) | 128 (≈ 50.7 µg/mL) | 16 (≈ 6.34 µg/mL) | 128 (≈ 50.7 µg/mL) | 128 (≈ 50.7 µg/mL) | 8 (≈ 3.17 µg/mL) | 1 (≈ 0.396 µg/mL) | 1 (≈ 0.396 µg/mL) | 8 (≈ 3.17 µg/mL) | 128 (≈ 50.7 µg/mL) | 
6 | COc1cccc(OC)c1C(=O)N[C@@H]1C(=O)N2[C@@H]1SC(C)(C)[C@@H]2C(=O)O [METHICILLIN] | 2 (≈ 0.761 µg/mL) | 128 (≈ 48.7 µg/mL) | 4 (≈ 1.52 µg/mL) | 128 (≈ 48.7 µg/mL) | 128 (≈ 48.7 µg/mL) | 1 (≈ 0.38 µg/mL) | 128 (≈ 48.7 µg/mL) | 128 (≈ 48.7 µg/mL) | 128 (≈ 48.7 µg/mL) | 128 (≈ 48.7 µg/mL) | 128 (≈ 48.7 µg/mL) | 128 (≈ 48.7 µg/mL) | 128 (≈ 48.7 µg/mL) | 128 (≈ 48.7 µg/mL) | 8 (≈ 3.04 µg/mL) | 128 (≈ 48.7 µg/mL) | 2 (≈ 0.761 µg/mL) | 128 (≈ 48.7 µg/mL) | 128 (≈ 48.7 µg/mL) | 
7 | CN[C@@H]1[C@H](O[C@H]2[C@H](O[C@H]3[C@H](O)[C@@H](O)[C@H](N=C(N)N)[C@@H](O)[C@@H]3N=C(N)N)O[C@@H](C)[C@]2(O)C=O)O[C@@H](CO)[C@H](O)[C@H]1O [STREPTOMYCIN] | 1 (≈ 0.582 µg/mL) | 16 (≈ 9.31 µg/mL) | 1 (≈ 0.582 µg/mL) | 2 (≈ 1.16 µg/mL) | 64 (≈ 37.2 µg/mL) | 1 (≈ 0.582 µg/mL) | 1 (≈ 0.582 µg/mL) | 4 (≈ 2.33 µg/mL) | 128 (≈ 74.4 µg/mL) | 64 (≈ 37.2 µg/mL) | 4 (≈ 2.33 µg/mL) | 2 (≈ 1.16 µg/mL) | 128 (≈ 74.4 µg/mL) | 128 (≈ 74.4 µg/mL) | 128 (≈ 74.4 µg/mL) | 128 (≈ 74.4 µg/mL) | 128 (≈ 74.4 µg/mL) | 32 (≈ 18.6 µg/mL) | 64 (≈ 37.2 µg/mL) | 
